According to patent publication US5075287A, “Muramyl peptide derivatives and immunoregulating compositions containing them” (priority 1989, dated 1991):
Like-named read-outs stand apart in the source and are kept apart here.

What was measured:
[1] = tested on: hepatitis B virus surface antigen (HBs); assay: Hepatitis-vaccine enhancing activity (adjuvant activity): anti-HBs IgG in mouse serum by ELISA; assay type: in vivo, female CDF1 mice; conditions: Experiment 1, 5000-fold dilution
Protocol: A compound of the present invention was dissolved in lipidmicrosphere (1 mg/ml). On the other hand, a solution of hepatitis B virus surface antigen (HBs) in physiological saline was prepared (50 μg/ml). The above solutions in equal amounts were mixed to prepare a test solution. A control solution was prepared by the exclusion of the compound of the present invention from said test solution. A mixture of a suspension of aluminium hydroxide gel in physiological saline (1 mg/ml) and said hepatitis vaccine preparation in equal amounts was prepared as another control solution. The test solution (0.2 ml) was intraperitoneally administered to each mouse in one group consisting of seven female CDF1 mice.
Blood samples were collected from the fundus ocluli vein of each mouse every week after the administration and then centrifuged to obtain serums. Three weeks after the administration, 0.2 ml of the test liquid was intraperitoneally administered again to each mouse for secondary stimulation. Then blood collecting was conducted every week to obtain serums after the application of the secondary stimulation, in the same manner as that described above.
The amount of the IgG antibodies against the hepatitis B virus surface antigens (HBs) in the serums thus obtained was determined with an ELISA method.

[2] = tested on: influenza HA vaccine (B/Nagasaki/1/87 strain); assay type: in vivo, female CDF1 mice; conditions: Experiment 1, 5000-fold dilution
[3] = tested on: L-1210 mouse leukemia cells; assay: Activation of macrophages (growth inhibition of tumor cells by intraperitoneal macrophages of treated mice, MTT assay); assay type: cell-based; conditions: macrophages taken 3 days after i.p. 0.2 ml of 500 μg/ml, macrophage:L-1210 20:1, 72 hours
Protocol: A compound of the present invention was dissolved in lipidmicrosphere to obtain a solution in a concentration of 500μg/ml, and 0.2 ml of such solution was intraperitoneally administered to each mouse in one group consisting of seven female CDF1 mice. Intraperitoneal macrophages obtained three days after the administration and L-1210 mouse leukemia cells were mixed in the ratio of cell numbers of 20:1, respectively. Two hundred μl of the mixture was placed in each well of one sheet of 96 well microtiter plate. After 72 hours, the increase of the cell number in each well was determined by a MTT assay method. The ratio of the cell number for the mixture of the L-1210 cells and the macrophage relative to the cell number for the L-1210 cells only(growth inhibitory ratio) was determined, and the results are shown in Table 3.

[4] = 1 W after i.p. administration, compound in lipidmicrosphere + HBs
[5] = 4 W (after secondary stimulation at 3 weeks)
[6] = 5 W (after secondary stimulation at 3 weeks)
[7] = 1 W after i.p. administration, compound in lipidmicrosphere + HA vaccine

Row | Compound | Anti-HBs IgG antibody level in serum (ELISA absorbance at 415 nm) [1, 4] [O.D 415 nm] | Anti-HBs IgG antibody level in serum (ELISA absorbance at 415 nm) ([1]; 2 W) [O.D 415 nm] | Anti-HBs IgG antibody level in serum (ELISA absorbance at 415 nm) ([1]; 3 W) [O.D 415 nm] | Anti-HBs IgG antibody level in serum (ELISA absorbance at 415 nm) [1, 5] [O.D 415 nm] | Anti-HBs IgG antibody level in serum (ELISA absorbance at 415 nm) [1, 6] [O.D 415 nm] | Anti HA serum antigen value (average value ± S.D.) [2, 7] [O.D 415 nm] | Anti HA serum antigen value (average value ± S.D.) ([2]; 2 W) [O.D 415 nm] | Anti HA serum antigen value (average value ± S.D.) ([2]; 3 W) [O.D 415 nm] | Anti HA serum antigen value (average value ± S.D.) [2, 5] [O.D 415 nm] | Anti HA serum antigen value (average value ± S.D.) [2, 6] [O.D 415 nm] | Growth inhibitory ratio of L-1210 mouse leukemia cells [3] [%]
1 | CCCCCCCCCCCCCC(=O)O[C@H](CCCCCCCCCCC)CC(=O)O[C@H]1O[C@H](CO)[C@@H](O)[C@H](O[C@H](C)C(=O)N[C@@H](C)C(=O)N[C@H](CCC(=O)OC)C(N)=O)[C@H]1NC(C)=O [Example 3, N-[2-0-{2-Acetamido-2,3-dideoxy-1-0-((3R)-3-tetradecanoyloxytetradecanoyl)-α-D-glucopyranos-3-yl}-D-lactoyl]-L-alanyl-D-isoglutamine methylester] | 0 | 0.027 ± 0.001 | 0.064 ± 0.003 | 0.631 ± 0.006 | 0.692 ± 0.009 | 0.009 ± 0.000 | 0.182 ± 0.003 | 0.292 ± 0.004 | 0.122 ± 0.020 | 1.140 ± 0.013 | 42.6
2 | CCCCCCCCCCCCCC(=O)O[C@H](CCCCCCCCCCC)CC(=O)S[C@@H]1O[C@H](CO)[C@@H](O)[C@H](O[C@H](C)C(=O)N[C@@H](C)C(=O)N[C@H](CCC(=O)OC)C(N)=O)[C@H]1NC(C)=O [Example 4, N-[2-0-{2-Acetamido-2,3-dideoxy-1-S-[[3R)-3-tetradecanoyloxytetradecanoyl)-1-thio-β-D-glucopyranos-3-yl}-D-lactoyl]-L-alanyl-D-isoglutamine methylester] | 0 | 0.073 ± 0.001 | 0.111 ± 0.007 | 0.848 ± 0.009 | 0.935 ± 0.022 | 0.004 ± 0.001 | 0.215 ± 0.001 | 0.381 ± 0.004 | 1.204 ± 0.012 | 1.150 ± 0.016 | 45.2
3 | CCCCCCCCCCCCCCC(CCCCCCCCCCCCCC)C(=O)O[C@H]1O[C@H](COC(=O)CCCCCCCCC)[C@@H](O)[C@H](O[C@H](C)C(=O)N[C@@H](C)C(=O)N[C@H](CCC(=O)OC)C(N)=O)[C@H]1NC(C)=O [Example 5] | 0.001 ± 0.001 | 0.021 ± 0.001 | 0.048 ± 0.001 | 0.643 ± 0.013 | 0.490 ± 0.009 | 0 | 0.091 ± 0.002 | 0.377 ± 0.001 | 1.037 ± 0.027 | 1.068 ± 0.004 | 57.8
4 | CCCCCCCCCCCCCCC(CCCCCCCCCCCCCC)C(=O)O[C@H]1O[C@H](COC(=O)CCCCCCCCCCCCC)[C@@H](O)[C@H](O[C@H](C)C(=O)N[C@@H](C)C(=O)N[C@H](CCC(=O)OC)C(N)=O)[C@H]1NC(C)=O [Example 6, N-[2-0-{2-Acetamido-2,3-dideoxy-6-0-tetradecanoyl-1-0-(2-tetradecylhexadecanoyl)-α-D-glucopyranos-3-yl}-D-lactoyl]-L-alanyl-D-isoglutamine methylester] | 0 | 0.020 ± 0.002 | 0.069 ± 0.001 | 0.477 ± 0.005 | 0.529 ± 0.005 | 0.001 ± 0.001 | 0.013 ± 0.002 | 0.259 ± 0.004 | 1.025 ± 0.013 | 1.159 ± 0.013 | 63.0
5 | CCCCCCCCCCCCCCCCCC(=O)OC[C@H]1O[C@H](OC(=O)C(CCCCCCCCCCCCCC)CCCCCCCCCCCCCC)[C@H](NC(C)=O)[C@@H](O[C@H](C)C(=O)N[C@@H](C)C(=O)N[C@H](CCC(=O)OC)C(N)=O)[C@@H]1O [Example 7, N-[2-0-{2-Acetamido-2,3-dideoxy-6-0-octadecanoyl-1-0-(2-tetradecylhexadecanoyl)-α-D-glucopyranos-3-yl}-D-lactoyl]-L-alanyl-D-isoglutamine methylester] | 0 | 0.016 ± 0.003 | 0.071 ± 0.004 | 0.426 ± 0.000 | 0.470 ± 0.010 | 0.001 ± 0.001 | 0.112 ± 0.003 | 0.286 ± 0.001 | 1.039 ± 0.010 | 1.128 ± 0.026 | 90.2
6 | CCCCCCCCCCCCCCC(CCCCCCCCCCCCCC)C(=O)S[C@@H]1O[C@H](COC(=O)CCCCCCCCC)[C@@H](O)[C@H](O[C@H](C)C(=O)N[C@@H](C)C(=O)N[C@H](CCC(=O)OC)C(N)=O)[C@H]1NC(C)=O [Example 8, N-[2-0-{2-Acetamido-2,3-dideoxy-6-0-decanoyl-1-S-(2-tetradecylhexadecanoyl)-1-thio-β-D-glucopyranos-3--yl}-D-lactoyl]-L-alanyl-D-isoglutamine methylester] | 0 | 0.067 ± 0.003 | 0.114 ± 0.002 | 0.897 ± 0.012 | 0.845 ± 0.016 | 0.001 ± 0.001 | 0.105 ± 0.005 | 0.246 ± 0.004 | 1.246 ± 0.019 | 1.267 ± 0.023 | 57.9
7 | CCCCCCCCCCCCCCC(CCCCCCCCCCCCCC)C(=O)S[C@@H]1O[C@H](COC(=O)CCCCCCCCCCCCC)[C@@H](O)[C@H](O[C@H](C)C(=O)N[C@@H](C)C(=O)N[C@H](CCC(=O)OC)C(N)=O)[C@H]1NC(C)=O [Example 9, N-[2-0-{2-Acetamido-2,3-dideoxy-6-0-tetradecanoyl-1-S-(2-tetradcylhexadecanoyl)-1-thio-β-D-glucopyranos-3-yl}-D-lactoyl]-L-alanyl-D-isoglutamine methylester] | 0.014 ± 0.002 | 0.092 ± 0.003 | 0.149 ± 0.001 | 0.681 ± 0.012 | 0.702 ± 0.006 | 0.019 ± 0.002 | 0.168 ± 0.005 | 0.392 ± 0.006 | 1.342 ± 0.005 | 1.329 ± 0.026 | 58.5
